Experimental data taken from publication PMC5064002, “Sintokamide A Is a Novel Antagonist of Androgen Receptor That Uniquely Binds Activation Function-1 in Its Amino-terminal Domain” (The Journal of Biological Chemistry, 2016).
Where two headings read alike, the source gives them in different places.

Experiments:
endogenous FL-AR = biological target: T1, endogenous FL-AR (Homo sapiens, UniProt P10275, T878A); experiment: Binding assay of click chemistry probes to full-length AR in LNCaP cells; conditions: 20 μM LPY probes or 25 μM EPI-053, click chemistry, Western blot
T1 construct: endogenous in cells; host or cells: LNCaP
T1 sequence (P10275 1-920 T878A): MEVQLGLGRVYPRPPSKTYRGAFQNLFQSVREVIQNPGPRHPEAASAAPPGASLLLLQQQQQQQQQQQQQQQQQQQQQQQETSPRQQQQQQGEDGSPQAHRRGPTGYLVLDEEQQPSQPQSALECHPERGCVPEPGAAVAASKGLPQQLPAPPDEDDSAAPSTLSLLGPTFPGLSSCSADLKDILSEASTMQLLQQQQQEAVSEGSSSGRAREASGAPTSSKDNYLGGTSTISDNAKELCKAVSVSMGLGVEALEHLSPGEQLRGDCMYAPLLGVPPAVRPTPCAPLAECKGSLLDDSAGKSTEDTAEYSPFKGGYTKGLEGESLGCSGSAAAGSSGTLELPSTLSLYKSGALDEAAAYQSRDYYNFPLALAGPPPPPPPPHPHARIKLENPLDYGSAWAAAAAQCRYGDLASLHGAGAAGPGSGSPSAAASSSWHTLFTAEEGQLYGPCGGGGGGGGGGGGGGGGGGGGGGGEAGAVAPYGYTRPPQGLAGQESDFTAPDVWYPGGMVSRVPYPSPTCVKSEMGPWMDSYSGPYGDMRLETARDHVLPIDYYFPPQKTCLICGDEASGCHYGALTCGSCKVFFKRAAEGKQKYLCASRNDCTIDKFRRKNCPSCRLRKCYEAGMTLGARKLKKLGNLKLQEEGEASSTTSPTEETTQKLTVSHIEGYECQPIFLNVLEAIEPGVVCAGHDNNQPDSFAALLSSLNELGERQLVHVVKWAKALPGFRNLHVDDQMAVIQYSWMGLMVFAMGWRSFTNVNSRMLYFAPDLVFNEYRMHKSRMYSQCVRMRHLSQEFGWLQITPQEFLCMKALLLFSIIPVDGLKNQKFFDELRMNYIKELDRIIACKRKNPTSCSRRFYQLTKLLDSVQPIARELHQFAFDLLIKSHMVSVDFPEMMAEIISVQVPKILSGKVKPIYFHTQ
Method: LNCaP cells were treated for 24 h with 20 μM modified SINT1 (LPY19, -30, and -31) or the vehicle dimethyl sulfoxide (DMSO). 25 μM EPI-053 (a modified EPI-001 analog) was used as positive control ([5]). Proteins were extracted with lysis buffer and subjected to click chemistry conditions for 3 h at 25 °C in buffer containing 0.1% SDS, 5% t-butyl alcohol, 100 μM tris[(1-benzyl-1H-1,2,3-triazol-4-yl)methyl]amine (Sigma), 1 mM tris(2-carboxyethyl)phosphine, 100 μM biotin-azide reagent, and 1 mM CuSO4. Samples were dialyzed in 50 mM HEPES, pH 8.0, 150 mM NaCl, 0.1% SDS, and 1% Triton X-100 to remove excess biotin-azide reagent. Biotinylated soluble receptors were captured with streptavidin-agarose resin. Protein-SINT1 complexes were separated by 10% SDS-PAGE and subjected to Western blotting analysis using AR-N20 (1:1000) and biotin (1:1000) antibodies. Proteins were visualized using ECL detection reagent (Amersham Biosciences).
To reveal whether SINT1 binds to endogenous AR, LNCaP cells were incubated with modified SINT1 click chemistry probes (LPY19, LPY30, and LPY31 shown in Fig. 2A). The EPI-002 click chemistry probe EPI-053 was used as a positive control ([5]). […] LNCaP cells were incubated overnight with these probes prior to click chemistry to add biotin to each click chemistry probe (see schema in Fig. 2B, right). Cell lysates were used for immunoprecipitation with streptavidin to isolate those proteins bound to biotinylated probes. Immunocomplexes were split with one aliquot used for Western blotting analysis using an antibody to biotin (Fig. 2B, left) and the other aliquot for Western blotting analysis using an antibody to AR (Fig. 2B, middle). […] Consistent with these biotin bands corresponding to AR, the AR was immunoprecipitated with streptavidin only in those immunocomplexes that were both positive for biotin (Fig. 2B) and biologically active against AR transcriptional activity (EPI-053, LPY30, and LPY31).

AR [1] = biological target: T2, AR (Homo sapiens, UniProt P10275, T878A); design: method as in PMID 23722902; conditions: cited from earlier work
T2 construct: endogenous in cells; host or cells: LNCaP
T2 sequence (P10275 1-920 T878A): T1 sequence (P10275 1-920 T878A)

AR [2] = biological target: T2, AR; experiment: AR transcriptional activity of SINT1 click chemistry probes, PSA (6.1 kb)-luciferase in LNCaP cells; format: cell-based; conditions: for biological activity measured using an AR-driven reporter gene construct: 40 μM LPY19, 20 μM LPY30 and LPY31
Method: FIGURE 2. SINT1 binds endogenous AR in living cells to inhibit transactivation of AR NTD. A, chemical structures of EPI-002, EPI-053, LPY19, LPY30, LPY31, and SINT1 (left). The effect of SINT1 probes in AR transcriptional activity was tested in LNCaP cells transiently transfected with PSA (6.1 kb)-luciferase and exposed for 1 h to 40 μM LPY19 and 20 μM LPY30 and LPY31 before induction with 1 nM […] for 48 h. Error bars represent the mean ± S.E. of n = 3 independent experiments with triplicate wells (right). B, binding of SINT1 click chemistry analogs to FL-AR in cells. LNCaP cells were exposed to modified SINT1 (LPY19, -30, and -31), EPI-053, or DMSO vehicle overnight prior to preparing whole cell lysates for click chemistry reactions. Biotinylated SINT1 or EPI probes bound to proteins were captured with streptavidin-agarose resin prior to separation by 10% SDS-PAGE and subjected to Western blotting analysis with antibodies directed to either biotin (left) or AR (middle). Red boxes highlight where AR migrates on the gel. Right, schema of experiment. […] Right, schema of experiment.

[3] = biological target: T3, Histidine-tagged AR AF-1 recombinant protein (Homo sapiens, UniProt P10275); experiment: Binding assay of click chemistry probes to recombinant AR AF-1; conditions: cell-free, AF1-His tag, 1:10 molar ratio, 37 °C 3 h
T3 construct: made in house
T3 sequence (P10275 142-485): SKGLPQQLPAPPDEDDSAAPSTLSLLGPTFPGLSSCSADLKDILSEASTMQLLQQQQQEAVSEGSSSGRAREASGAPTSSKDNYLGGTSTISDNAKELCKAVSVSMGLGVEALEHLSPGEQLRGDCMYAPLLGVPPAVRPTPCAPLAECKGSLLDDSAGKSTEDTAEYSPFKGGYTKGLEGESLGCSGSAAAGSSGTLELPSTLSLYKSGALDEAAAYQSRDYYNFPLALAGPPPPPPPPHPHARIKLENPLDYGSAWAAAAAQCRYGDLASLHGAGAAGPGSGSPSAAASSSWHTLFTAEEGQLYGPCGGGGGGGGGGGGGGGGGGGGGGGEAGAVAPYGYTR
Method: Histidine-tagged AR AF-1 recombinant protein was expressed and purified as described ([5]). The binding reaction was carried out by mixing AR AF-1 protein with alkyne-containing LPY probes or DMSO at a 1:10 molar ratio and incubated in buffer containing 10 mM HEPES, pH 7.9, and 100 mM NaCl at 37 °C for 3 h. LPY probes were labeled with biotin by copper-catalyzed click chemistry reaction at 25 °C for 1 h ([5]). Samples were resolved by 10% SDS-PAGE, and Western blotting was performed to detect biotin and histidine-tagged AR AF-1 using IRDye® 680LT streptavidin (1:5000) and anti-His (1:1000) antibody, respectively.
Therefore, we next evaluated whether SINT1 binds the AF-1 region in AR NTD. Purified recombinant AF-1 protein (AF1-His tag) was incubated under cell-free conditions with LPY19, LPY30, and LPY31 prior to click chemistry to add a biotin to the LPY probe (see schema in Fig. 2C, right).

Tau5 = system: Tau5; design: method as in PMID 27356095; conditions: contact to residues 353–364, 397–407 and 433–466; cited from earlier work
LNCaP95 cells = experiment: Cell proliferation (BrdU incorporation), LNCaP95; format: cell-based; conditions: 48 h
Method: Cells were pulse-labeled with 10 μM BrdU for 2 h. Cells were fixed, and BrdU-labeled cells were identified with anti-BrdU-peroxidase (Roche Applied Science). BrdU incorporation was measured at 570 nm using a VersaMax ELISA microplate reader (Molecular Devices). At least three independent experiments with six technical replicates were analyzed, and average values are indicated.

[4] = biological target: T4, progesterone receptor (PR)-β (Homo sapiens, UniProt P06401); experiment: Steroid receptor specificity: PRE-luciferase reporter in LNCaP cells; format: cell-based; conditions: 10 μM compound, 10 nM 4-pregnene-3,20-dione, 48 h
T4 construct: expressed in transfected cells; host or cells: LNCaP
T4 sequence (P06401 1-933): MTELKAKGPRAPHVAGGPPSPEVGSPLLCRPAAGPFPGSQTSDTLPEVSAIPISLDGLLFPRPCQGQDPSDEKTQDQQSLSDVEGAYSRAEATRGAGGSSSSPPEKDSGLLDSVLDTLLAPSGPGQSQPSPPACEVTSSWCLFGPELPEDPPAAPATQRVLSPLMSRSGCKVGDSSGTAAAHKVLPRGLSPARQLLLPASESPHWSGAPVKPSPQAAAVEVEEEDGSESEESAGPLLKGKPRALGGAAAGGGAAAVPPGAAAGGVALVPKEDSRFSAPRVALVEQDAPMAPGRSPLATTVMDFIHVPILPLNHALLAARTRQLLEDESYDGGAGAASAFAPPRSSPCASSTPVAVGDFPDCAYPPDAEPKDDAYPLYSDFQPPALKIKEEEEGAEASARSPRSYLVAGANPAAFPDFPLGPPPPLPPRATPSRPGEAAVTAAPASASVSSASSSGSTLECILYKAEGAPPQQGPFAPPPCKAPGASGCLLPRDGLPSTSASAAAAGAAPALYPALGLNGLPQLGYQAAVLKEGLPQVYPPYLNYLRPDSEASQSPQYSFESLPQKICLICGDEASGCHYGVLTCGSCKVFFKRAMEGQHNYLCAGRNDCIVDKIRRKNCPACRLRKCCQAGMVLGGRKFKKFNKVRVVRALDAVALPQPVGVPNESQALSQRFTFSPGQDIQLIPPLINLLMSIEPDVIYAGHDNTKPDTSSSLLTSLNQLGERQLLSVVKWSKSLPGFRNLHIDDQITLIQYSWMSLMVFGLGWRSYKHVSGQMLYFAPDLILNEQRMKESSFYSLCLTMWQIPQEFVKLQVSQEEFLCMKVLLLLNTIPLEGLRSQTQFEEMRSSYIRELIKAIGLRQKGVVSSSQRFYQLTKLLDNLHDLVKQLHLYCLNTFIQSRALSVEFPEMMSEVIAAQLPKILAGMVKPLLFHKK
Method: LNCaP cells were transfected with the reporter plasmid PSA(6.1kb)-luciferase, PRE-luciferase, or GRE-luciferase and expression vector for progesterone receptor (PR)-β or glucocorticoid receptor (GR)-α in serum-free, phenol red-free medium using Lipofectin (Invitrogen). […] After 48 h of treatment, cells were lysed and analyzed for luciferase activities.
FIGURE 1. […] A, LNCaP cells were transfected with PSA (6.1 kb)-luciferase, PRE-luciferase, or GRE-luciferase reporters and expression vector for PRβ or GRα. […] Error bars represent mean percentage of vehicle activity ±S.E. of at least three independent experiments with triplicate wells. SINT1, 10 μM; […]; ***, p < 0.001. […]. Error bars represents mean ± S.E. of three technical replicates. […] DAPI staining indicates the location of the nucleus. Scale bars, 20 μm.

[5] = LNCaP, PSA (6.1 kb)-luciferase, 1 nM R1881 48 h

Structure (SMILES) | binding to endogenous FL-AR (biotin band corresponding to AR after streptavidin capture) (endogenous FL-AR) | biological activity measured using an AR-driven reporter gene construct (AR [2]; [5]) | binding of biotinylated probe to AF-1 [3] | other results
C#CCOC[C@H](O)COc1ccc(C(C)(C)c2ccc(OC[C@H](O)CCl)cc2)cc1 [EPI-053, reference compound] | a band corresponding to AR |  |  | biological activity measured using an AR-driven reporter gene construct (AR [1]): had biological activity
C#CCCC(=O)N[C@H](CC(C)C)C(=O)N1C(=O)C=C(OC)[C@@H]1CC(C)C [LPY19] | not | very weak activity | no binding | activity at 20 μM, AR-driven reporter (AR [2]; 20 μM): inactive; IC50 (AR [2]; LNCaP, PSA (6.1 kb)-luciferase, 1 nM R1881 48 h, read-out: IC50, AR-driven reporter gene construct): ~40 µM
CC(C)(c1ccc(OCC(O)CO)cc1)c1ccc(OCC(O)CCl)cc1 (stereo not drawn) [EPI-001] |  |  |  | binding to Tau5 by NMR spectroscopy (Tau5): binds in a pocket in Tau5
CC(O)(CS(=O)(=O)c1ccc(F)cc1)C(=O)Nc1ccc(C#N)c(C(F)(F)F)c1 (stereo not shown) [bicalutamide, reference compound] |  |  |  | proliferation of LNCaP95 cells (LNCaP95 cells): no effect; PR transcriptional activity (PRE-luciferase) [4]: inhibited
C#CCCC(=O)NC(CCC(Cl)(Cl)Cl)C(=O)N1C(=O)C=C(OC)C1CCC(Cl)(Cl)Cl (stereo not shown) [LPY30] | a band corresponding to AR | had biological activity | binding | 
